According to ChEMBL document CHEMBL1201862, “PubChem BioAssay data set” (2004):
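Protocol summary: plate cells (96-well), add compound at 5 concentrations, incubate 48 h, interpolate endpoints linearly. GI50 marks 50% less growth.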 Active and inactive are the calls of the source. Cut-off read from the data, not from the text of the source: active = GI50 up to about 1.1 µM and inactive = higher.

Tests used:
Assay in all cases: growth of human tumour cells (NCI), 48 h
NCI/ADR-RES = test system: NCI/ADR-RES
MOLT-4 = test system: MOLT-4
NCI-H226 = test system: NCI-H226
SK-OV-3 = test system: SK-OV-3
SF-295 = test system: SF-295
EKVX = test system: EKVX
RPMI-8226 = test system: RPMI-8226
HCC 2998 = test system: HCC 2998
SK-MEL-2 = test system: SK-MEL-2
SK-MEL-28 = test system: SK-MEL-28
MDA-MB-435 = test system: MDA-MB-435
HCT-15 = test system: HCT-15
Malme-3M = test system: Malme-3M
UACC-257 = test system: UACC-257
A549 = test system: A549
UACC-62 = test system: UACC-62
786-0 = test system: 786-0
SK-MEL-5 = test system: SK-MEL-5
SR = test system: SR
SF-539 = test system: SF-539

SMILES | GI50 (NCI/ADR-RES) | GI50 (MOLT-4) | GI50 (NCI-H226) | GI50 (SK-OV-3) | GI50 (SF-295) | GI50 (EKVX) | GI50 (RPMI-8226) | GI50 (HCC 2998) | GI50 (SK-MEL-2) | GI50 (SK-MEL-28) | GI50 (MDA-MB-435) | GI50 (HCT-15) | GI50 (Malme-3M) | GI50 (UACC-257) | GI50 (A549) | GI50 (UACC-62) | GI50 (786-0) | GI50 (SK-MEL-5) | GI50 (SR) | GI50 (SF-539)
CC(=O)NC(Cc1ccc(O)cc1)C(=O)O (centres undefined) | > 100 µM (inactive) | > 100 µM (inactive) | > 100 µM (inactive) | > 100 µM (inactive) | > 100 µM (inactive) | > 100 µM (inactive) | > 100 µM (inactive) | > 100 µM (inactive) | > 100 µM (inactive) | > 100 µM (inactive) | > 100 µM (inactive) | > 100 µM | > 100 µM (inactive) | > 100 µM (inactive) | > 100 µM (inactive) | > 100 µM (inactive) | > 100 µM (inactive) | > 100 µM (inactive) | – | –
CC1(C)OC(=O)CC12CCN(Cc1ccccc1)CC2 | > 100 µM (inactive) | > 100 µM (inactive) | > 100 µM (inactive) | > 100 µM (inactive) | > 100 µM (inactive) | > 100 µM (inactive) | > 100 µM (inactive) | – | > 100 µM (inactive) | > 100 µM (inactive) | > 100 µM (inactive) | > 100 µM | > 100 µM (inactive) | > 100 µM (inactive) | > 100 µM (inactive) | > 100 µM (inactive) | > 100 µM (inactive) | > 100 µM (inactive) | > 100 µM (inactive) | > 100 µM (inactive)
Clc1ccc(/C=N/c2ccc3c(c2)Cc2ccccc2-3)c(Cl)c1 | > 100 µM (inactive) | > 100 µM (inactive) | > 100 µM (inactive) | > 100 µM (inactive) | > 100 µM (inactive) | > 100 µM (inactive) | 75.2 µM (inactive) | – | > 100 µM (inactive) | > 100 µM (inactive) | 50.7 µM (inactive) | 40.6 µM | > 100 µM (inactive) | > 100 µM (inactive) | > 100 µM (inactive) | > 100 µM (inactive) | > 100 µM (inactive) | > 100 µM (inactive) | 45.9 µM (inactive) | > 100 µM (inactive)
CC1(C)CC(=O)c2c(nc3c(ccc4ccccc43)c2-c2ccc(NC(=O)CCCC(=O)Nc3ccc(-c4c5c(nc6c4ccc4ccccc46)CC(C)(C)CC5=O)cc3)cc2)C1 | > 100 µM (inactive) | > 100 µM (inactive) | > 100 µM (inactive) | > 100 µM (inactive) | > 100 µM (inactive) | > 100 µM (inactive) | > 100 µM (inactive) | – | > 100 µM (inactive) | > 100 µM (inactive) | > 100 µM (inactive) | 46.5 µM | – | > 100 µM (inactive) | > 100 µM (inactive) | – | > 100 µM (inactive) | > 100 µM (inactive) | > 100 µM (inactive) | > 100 µM (inactive)
Cc1cc2c([N+](=O)[O-])cc3c(c2o1)C(=O)C=CC3=O | 22.9 µM (inactive) | 0.415 µM (active) | 28.6 µM (inactive) | 29.5 µM (inactive) | 8.13 µM (inactive) | 3.37 µM (inactive) | 0.586 µM (active) | 30.5 µM (inactive) | 19.1 µM (inactive) | 8.85 µM (inactive) | 3.2 µM (inactive) | 15 µM | – | 2.62 µM (inactive) | 18.3 µM (inactive) | 15.2 µM (inactive) | 2.01 µM (inactive) | 14.2 µM (inactive) | 5.41 µM (inactive) | 15.1 µM (inactive)
CCCCNN | > 100 µM (inactive) | > 100 µM (inactive) | > 100 µM (inactive) | > 100 µM (inactive) | > 100 µM (inactive) | > 100 µM (inactive) | > 100 µM (inactive) | – | > 100 µM (inactive) | > 100 µM (inactive) | > 100 µM (inactive) | > 100 µM | > 100 µM (inactive) | > 100 µM (inactive) | > 100 µM (inactive) | > 100 µM (inactive) | > 100 µM (inactive) | 95.7 µM (inactive) | > 100 µM (inactive) | –
NC1=CC(C(=O)c2ccncc2)c2nc3ccccc3nc21 (centres undefined) | > 100 µM (inactive) | > 100 µM (inactive) | > 100 µM (inactive) | > 100 µM (inactive) | 94.4 µM (inactive) | > 100 µM (inactive) | > 100 µM (inactive) | > 100 µM (inactive) | > 100 µM (inactive) | > 100 µM (inactive) | > 100 µM (inactive) | 92.7 µM | > 100 µM (inactive) | > 100 µM (inactive) | > 100 µM (inactive) | > 100 µM (inactive) | > 100 µM (inactive) | > 100 µM (inactive) | – | > 100 µM (inactive)
